Test results from patent US10077261B2, “Imidazolin-5-one derivative useful as FASN inhibitors for the treatment of cancer” (Janssen Pharmaceutica NV, priority 2012, dated 2018).

What was measured:
[1] = biological target: T1, hFASN enzyme (full length) (Homo sapiens, UniProt P49327); experiment: Fatty Acid Synthase (FASN) inhibition scintillation proximity assay; format: biochemical; conditions: for inhibition at 10 µM: read-out: Human FASN % inhibition @ 10 μM, 10 μM test compound; for IC50: read-out: Human FASN pIC50 (converted)
T1 construct: 10 μL hFASN enzyme (full length, 300 ng, purified in house); made in house
In short: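 Purified full-length hFASN (300 ng) converts ^3H-acetyl-CoA plus malonyl-CoA to ^3H-palmitate in 100 mM KH2PO4 pH 7.5, 1 mM DTT; compounds tested at 0.01–30 μM. Product captured on streptavidin imaging beads and read by LEADseeker at 610 nm after ≥24 h; 4-parameter logistic fit versus controls.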

A2780 ovarian cells [2] = experiment: A2780 ovarian cell proliferation assay in lipid reduced medium, with palmitate (MTT); format: cell-based; conditions: Homo sapiens, A2780, 96 h; read-out: pIC50 A2780 Ovarian Cell, With Palmitate (converted)
In short: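 Seeded cells were switched next day to lipid-reduced serum, exposed to compound and 25 μM palmitate complexed with fatty-acid-free BSA, and incubated 96 h. Proliferation was then determined by MTT absorbance at 544 nm, with a best-fit curve of signal against concentration.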

A2780 ovarian cells [3] = experiment: A2780 ovarian cell proliferation assay in lipid reduced medium, without palmitate (MTT); format: cell-based; conditions: Homo sapiens, A2780, 96 h; read-out: pIC50 A2780 Ovarian Cell, Without Palmitate (converted)
[4] = tested on: LNCaP-Vancouver prostate cells; experiment: In vitro LNCaP Vancouver prostate cell proliferation assay in lipid reduced medium; format: cell-based; conditions: read-out: pIC50 LNCaP_Vancouver prostate cell (converted)
[5] = tested on: PC-3M-Luc-C6 prostate cells; experiment: In vitro PC-3M-Luc-C6 prostate cell proliferation assay in lipid reduced medium; format: cell-based; conditions: 96 h, read-out: pIC50 PC-3M-Luc-C6 prostate cell (converted)
Protocol: PC-3M-Luc-C6 prostate cells were obtained from Xenogen Corporation. Cells were maintained in MEM supplemented with 10% Fetal Calf Serum (FCS, Hyclone), 2 mM glutamine, 1 mM sodium pyruvate, 1% BME vitamins (available from for example, Sigma Aldrich), 0.1 mM non Essential Amino Acid and 50 μg/ml Gentamicin. The cells were passaged twice a week.
The next day 10 μl test compound/DMSO diluted in medium was added (3E-5M, 1E-5M, 3E-6M, 1E-6M, 3E-7M, 1E-7M, 3E-8M, 1E-8M final concentration). Compounds were tested in duplicate. After 96 h incubation at 37° C., 5% CO2 25 μl ATP-glow mix was added. The plate was incubated for 30 min at 37° C. and luminescence was measured with the Envision.
Analysis: Determination of pIC50 Values
pIC50 values were calculated as follows.
where mLC and mHC are the means of the low control wells and high control wells on the plate, after manual exclusion of outliers. The relation between the % Controlmin values and concentration was fitted to a 4-parameter logistic curve using a non-linear least squares regression method to determine the pIC50 value. Outlying data points were excluded manually to get a correct fit. The pIC50 corresponds to −log 10(IC50), if the IC50 is expressed in molar units (http://www.ncbi.nlm.nih.gov/books/NBK91994). The IC50 parameter was always determined by non-linear regression, but one or more of the other parameters may have been held fixed on a relevant input value, such as 0 for the bottom values.

[6] = biological target: Fatty Acid Synthase Keto-reductase Domain (FASN KR) (Homo sapiens, UniProt P49327); experiment: Fatty Acid Synthase keto-reductase domain (FASN KR) inhibition, NADPH oxidation at 340 nm
Sequence of Fatty Acid Synthase Keto-reductase Domain (FASN KR) (P49327 whole entry, the tested form may be a part): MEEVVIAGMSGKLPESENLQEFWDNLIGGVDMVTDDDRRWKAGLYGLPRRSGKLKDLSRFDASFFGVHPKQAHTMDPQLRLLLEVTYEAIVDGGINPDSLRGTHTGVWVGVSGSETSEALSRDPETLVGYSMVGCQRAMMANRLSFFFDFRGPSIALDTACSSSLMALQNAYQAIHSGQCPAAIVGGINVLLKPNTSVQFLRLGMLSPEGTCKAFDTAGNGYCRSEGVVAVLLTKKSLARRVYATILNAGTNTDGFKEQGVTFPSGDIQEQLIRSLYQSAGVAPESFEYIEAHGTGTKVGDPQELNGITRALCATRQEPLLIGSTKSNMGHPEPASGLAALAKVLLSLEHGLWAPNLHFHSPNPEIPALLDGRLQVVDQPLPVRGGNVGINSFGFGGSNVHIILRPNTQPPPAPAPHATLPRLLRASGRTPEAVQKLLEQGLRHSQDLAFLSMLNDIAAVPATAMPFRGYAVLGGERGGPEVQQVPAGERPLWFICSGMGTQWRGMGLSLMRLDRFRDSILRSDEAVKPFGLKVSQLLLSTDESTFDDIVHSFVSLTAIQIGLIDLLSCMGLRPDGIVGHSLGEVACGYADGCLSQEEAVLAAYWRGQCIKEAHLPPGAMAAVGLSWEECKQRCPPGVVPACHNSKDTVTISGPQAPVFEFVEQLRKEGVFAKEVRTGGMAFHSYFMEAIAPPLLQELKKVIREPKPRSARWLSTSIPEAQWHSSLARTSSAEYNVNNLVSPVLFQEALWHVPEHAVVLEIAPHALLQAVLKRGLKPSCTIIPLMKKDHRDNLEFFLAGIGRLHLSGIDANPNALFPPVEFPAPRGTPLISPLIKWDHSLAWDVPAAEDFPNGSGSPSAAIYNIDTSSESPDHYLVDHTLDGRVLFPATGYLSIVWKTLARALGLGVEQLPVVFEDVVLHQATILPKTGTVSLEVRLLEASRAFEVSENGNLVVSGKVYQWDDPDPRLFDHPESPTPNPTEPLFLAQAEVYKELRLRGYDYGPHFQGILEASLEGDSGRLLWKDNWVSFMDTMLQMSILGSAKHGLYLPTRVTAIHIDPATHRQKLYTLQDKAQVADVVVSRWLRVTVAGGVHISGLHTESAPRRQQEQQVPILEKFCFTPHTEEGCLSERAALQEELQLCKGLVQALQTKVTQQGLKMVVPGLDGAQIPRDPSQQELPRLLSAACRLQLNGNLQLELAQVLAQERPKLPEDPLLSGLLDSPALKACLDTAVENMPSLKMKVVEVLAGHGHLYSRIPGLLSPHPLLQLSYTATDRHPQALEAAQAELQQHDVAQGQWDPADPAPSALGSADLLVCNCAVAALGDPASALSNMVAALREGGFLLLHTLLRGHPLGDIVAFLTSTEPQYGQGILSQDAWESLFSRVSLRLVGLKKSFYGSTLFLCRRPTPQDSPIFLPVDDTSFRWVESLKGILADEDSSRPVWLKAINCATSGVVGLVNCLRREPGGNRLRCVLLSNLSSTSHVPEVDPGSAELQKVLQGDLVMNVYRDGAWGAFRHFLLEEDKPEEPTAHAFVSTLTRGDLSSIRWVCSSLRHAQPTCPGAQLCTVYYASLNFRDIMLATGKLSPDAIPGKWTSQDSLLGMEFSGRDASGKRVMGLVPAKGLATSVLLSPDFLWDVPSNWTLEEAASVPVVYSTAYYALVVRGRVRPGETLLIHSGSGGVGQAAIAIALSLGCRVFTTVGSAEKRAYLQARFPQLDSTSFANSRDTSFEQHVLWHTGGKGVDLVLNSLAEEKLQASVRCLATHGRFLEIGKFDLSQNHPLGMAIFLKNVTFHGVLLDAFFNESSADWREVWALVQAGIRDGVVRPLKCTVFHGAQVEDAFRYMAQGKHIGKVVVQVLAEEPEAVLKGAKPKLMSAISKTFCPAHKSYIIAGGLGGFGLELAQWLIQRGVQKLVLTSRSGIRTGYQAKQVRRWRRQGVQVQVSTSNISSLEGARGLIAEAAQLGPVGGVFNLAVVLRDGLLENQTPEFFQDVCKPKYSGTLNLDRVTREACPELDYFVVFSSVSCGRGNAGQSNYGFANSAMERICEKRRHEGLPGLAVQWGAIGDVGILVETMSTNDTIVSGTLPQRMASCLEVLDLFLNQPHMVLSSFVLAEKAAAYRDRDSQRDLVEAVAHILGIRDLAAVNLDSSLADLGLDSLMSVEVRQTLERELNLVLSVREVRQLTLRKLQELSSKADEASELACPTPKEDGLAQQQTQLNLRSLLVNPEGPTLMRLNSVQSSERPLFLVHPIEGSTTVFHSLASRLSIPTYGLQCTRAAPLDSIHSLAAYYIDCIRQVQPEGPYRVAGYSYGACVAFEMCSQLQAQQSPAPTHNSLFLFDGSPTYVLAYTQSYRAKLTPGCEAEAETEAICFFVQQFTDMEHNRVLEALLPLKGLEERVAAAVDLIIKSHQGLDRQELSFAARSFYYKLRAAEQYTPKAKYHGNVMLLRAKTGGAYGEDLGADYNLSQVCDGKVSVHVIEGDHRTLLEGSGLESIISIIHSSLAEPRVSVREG
Protocol: After 20 minutes incubation at room temperature the plate was measured again (T2).
The decrease in absorbance was calculated as (Absorbance before incubation T1)−(Absorbance following incubation T2).
A plot of Controlmin versus test compound concentration was fitted to a 4-parameter logistic curve using a non-linear least squares regression method.

T1 sequence (P49327 whole entry): as the sequence (P49327 whole entry, the tested form may be a part) above

Cc1cc(C2=NC3(CC3)C(=O)N2C[C@@H]2CCN(C(=O)C3CC3)C2)ccc1-c1ccc2cc[nH]c2c1 [compound 239, (R)-5-(4-(1H-indol-6-yl)-3-methylphenyl)-6-((1-(cyclopropanecarbonyl)pyrrolidin-3-yl)methyl)-4,6-diazaspiro[2.4]hept-4-en-7-one]
inhibition at 10 µM [1]: 96% | IC50 (A2780 ovarian cells [2]): > 10000 nM | IC50 (A2780 ovarian cells [3]): 60.3 nM | IC50 [4]: 813 nM | IC50 [5]: 135 nM

O=C(C1CC1)N1CC[C@@H](CN2C(=O)C3(CC3)N=C2c2ccc(-c3cnc4ccccc4c3)cc2F)C1 [compound 257, (R)-6-((1-(cyclopropanecarbonyl)pyrrolidin-3-yl)methyl)-5-(2-fluoro-4-(quinolin-3-yl)phenyl)-4,6-diazaspiro[2.4]hept-4-en-7-one]
inhibition at 10 µM [1]: 99% | IC50 [1]: 49 nM | IC50 [4]: 263 nM | IC50 [5]: 70.8 nM | IC50 [6]: 200 nM

Cc1cc2cc(-c3ccc(C4=NC5(CC5)C(=O)N4C[C@@H]4CCN(C(=O)C5CC5)C4)cc3)ccc2o1 [compound 294, (R)-6-((1-(cyclopropanecarbonyl)pyrrolidin-3-yl)methyl)-5-(4-(2-methylbenzofuran-5-yl)phenyl)-4,6-diazaspiro[2.4]hept-4-en-7-one]
inhibition at 10 µM [1]: 100% | IC50 (A2780 ovarian cells [2]): > 10000 nM | IC50 (A2780 ovarian cells [3]): ~1860 nM | IC50 [4]: 2040 nM | IC50 [5]: ~871 nM

O=C(C1CC1)N1CC[C@@H](CN2C(=O)C3(CC3)N=C2c2ccc(-c3ccc4cncnc4c3)cc2)C1 [compound 312, (R)-6-((1-(cyclopropanecarbonyl)pyrrolidin-3-yl)methyl)-5-(4-(quinazolin-7-yl)phenyl)-4,6-diazaspiro[2.4]hept-4-en-7-one]
inhibition at 10 µM [1]: 101% | IC50 [1]: 75.9 nM | IC50 [4]: 123 nM | IC50 [5]: ~52.5 nM | IC50 [6]: 75.9 nM

O=C(C1CC1)N1CC(CN2C(=O)C3(CC3)N=C2c2ccc(-c3ccc4cccnc4c3F)cc2)C1 [compound 315, 6-((1-(cyclopropanecarbonyl)azetidin-3-yl)methyl)-5-(4-(8-fluoroquinolin-7-yl)phenyl)-4,6-diazaspiro[2.4]hept-4-en-7-one]
inhibition at 10 µM [1]: 98% | IC50 [1]: 66.1 nM | IC50 [4]: 631 nM | IC50 [5]: 123 nM | IC50 [6]: 251 nM

Cn1ccc2cc(-c3ccc(C4=NC5(CC5)C(=O)N4CC4CN(C(=O)C5CC5)C4)cc3)ccc21 [compound 344, 6-((1-(cyclopropanecarbonyl)azetidin-3-yl)methyl)-5-(4-(1-methyl-1H-indol-5-yl)phenyl)-4,6-diazaspiro[2.4]hept-4-en-7-one]
inhibition at 10 µM [1]: 99% | IC50 [1]: 25.7 nM | IC50 [4]: 141 nM | IC50 [5]: ~32.4 nM | IC50 [6]: 45.7 nM

Nc1nccc2cc(-c3ccc(C4=NC5(CC5)C(=O)N4C[C@@H]4CCN(C(=O)C5CC5)C4)cc3)ccc12 [compound 469, 5-[4-(1-Aminoisoquinolin-6-yl)phenyl]-6-{[(3R)-1-(cyclopropylcarbonyl)pyrrolidin-3-yl]methyl}-4,6-diazaspiro[2.4]hept-4-en-7-one]
inhibition at 10 µM [1]: 97% | IC50 (A2780 ovarian cells [2]): > 10000 nM | IC50 (A2780 ovarian cells [3]): 74.1 nM | IC50 [4]: 288 nM | IC50 [5]: 58.9 nM

Cc1cc(-c2ccc3c(cnn3C)c2)ccc1C1=NC2(CC2)C(=O)N1CC1CN(C(=O)C2CCC2)C1 [compound 489]
inhibition at 10 µM [1]: 97% | IC50 (A2780 ovarian cells [2]): > 10000 nM | IC50 (A2780 ovarian cells [3]): 148 nM | IC50 [4]: 708 nM | IC50 [5]: ~251 nM

Cc1c(-c2ccc(C3=NC4(CC4)C(=O)N3CC3CN(C(=O)C4CC4)C3)cc2)ccc2c1cnn2C [compound 491, 6-{[1-(Cyclopropylcarbonyl)azetidin-3-yl]methyl}-5-[4-(1,4-dimethyl-1H-indazol-5-yl)phenyl]-4,6-diazaspiro[2.4]hept-4-en-7-one]
inhibition at 10 µM [1]: 100% | IC50 (A2780 ovarian cells [2]): > 10000 nM | IC50 (A2780 ovarian cells [3]): 72.4 nM | IC50 [4]: 1000 nM | IC50 [5]: ~178 nM

Cc1cc(-c2ccc3c(cnn3C)c2)ccc1C1=NC2(CC2)C(=O)N1CC1CN(C(=O)CC2CC2)C1 [compound 499, 6-{[1-(Cyclopropylacetyl)azetidin-3-yl]methyl}-5-[2-methyl-4-(1-methyl-1H-indazol-5-yl)phenyl]-4,6-diazaspiro[2.4]hept-4-en-7-one]
inhibition at 10 µM [1]: 96% | IC50 [1]: 245 nM | IC50 [4]: 4270 nM | IC50 [5]: 457 nM | IC50 [6]: 479 nM

O=C(C1CC1)N1CC(CN2C(=O)C3(CC3)N=C2c2ccc(-c3ccc4cnc(F)cc4c3)cc2)C1 [compound 502, 6-{[1-(Cyclopropylcarbonyl)azetidin-3-yl]methyl}-5-[4-(3-fluoroisoquinolin-6-yl)phenyl]-4,6-diazaspiro[2.4]hept-4-en-7-one]
inhibition at 10 µM [1]: 94% | IC50 [1]: 355 nM | IC50 [4]: 4170 nM | IC50 [5]: 1170 nM | IC50 [6]: 2140 nM

Cn1cc2cc(-c3ccc(C4=NC5(CC5)C(=O)N4CC4CN(C(=O)C5CC5)C4)cc3)ccc2n1 [compound 507, 6-{[1-(Cyclopropylcarbonyl)azetidin-3-yl]methyl}-5-[4-(2-methyl-2H-indazol-5-yl)phenyl]-4,6-diazaspiro[2.4]hept-4-en-7-one]
inhibition at 10 µM [1]: 89% | IC50 [1]: 417 nM | IC50 [4]: 6030 nM | IC50 [5]: ~1170 nM | IC50 [6]: 3630 nM

O=C(C1CC1)N1CC(CN2C(=O)C3(CC3)N=C2c2ccc(-c3ccc4cccnc4n3)cc2)C1 [compound 511, 6-{[1-(Cyclopropylcarbonyl)azetidin-3-yl]methyl}-5-[4-(1,8-naphthyridin-2-yl)phenyl]-4,6-diazaspiro[2.4]hept-4-en-7-one]
inhibition at 10 µM [1]: 94% | IC50 [1]: 355 nM | IC50 [4]: 4680 nM | IC50 [5]: ~891 nM | IC50 [6]: 3160 nM

Cc1cc(-c2cccc3c2cnn3C)ccc1C1=NC2(CC2)C(=O)N1CC1CN(C(=O)C2(C)CC2)C1 [compound 599, 6-({1-[(1-Methylcyclopropyl)carbonyl]azetidin-3-yl}methyl)-5-[2-methyl-4-(1-methyl-1H-indazol-4-yl)phenyl]-4,6-diazaspiro[2.4]hept-4-en-7-one]
inhibition at 10 µM [1]: 102% | IC50 (A2780 ovarian cells [2]): 5500 nM | IC50 (A2780 ovarian cells [3]): 145 nM | IC50 [4]: 912 nM | IC50 [5]: 105 nM

Cc1cc(-c2ccc3c(c2)ncn3C)ccc1C1=NC2(CC2)C(=O)N1CC1CN(C(=O)C2(O)CC2)C1 [compound 628, 6-({1-[(1-Hydroxycyclopropyl)carbonyl]azetidin-3-yl}methyl)-5-[2-methyl-4-(1-methyl-1H-benzimidazol-5-yl)phenyl]-4,6-diazaspiro[2.4]hept-4-en-7-one]
inhibition at 10 µM [1]: 100% | IC50 (A2780 ovarian cells [2]): > 10000 nM | IC50 (A2780 ovarian cells [3]): 66.1 nM | IC50 [4]: 724 nM | IC50 [5]: 162 nM

O=C(C1CC1)N1CC[C@@H](CN2C(=O)C3(CC3)N=C2c2ccc(-c3cccc(SC4CC4)c3)cc2F)C1 [compound 641, 6-{[(3R)-1-(Cyclopropylcarbonyl)pyrrolidin-3-yl]methyl}-5-[3′-(cyclopropylsulfanyl)-3-fluorobiphenyl-4-yl]-4,6-diazaspiro[2.4]hept-4-en-7-one]
inhibition at 10 µM [1]: 102% | IC50 (A2780 ovarian cells [2]): > 10000 nM | IC50 (A2780 ovarian cells [3]): ~2240 nM | IC50 [4]: 4570 nM | IC50 [5]: ~562 nM

O=C(C1CC1)N1CC(CN2C(=O)C3(CC3)N=C2c2ccc(-c3nc4cc(Cl)ccc4s3)cc2F)C1 [compound 643, 5-[4-(5-Chloro-1,3-benzothiazol-2-yl)-2-fluorophenyl]-6-{[1-(cyclopropylcarbonyl)azetidin-3-yl]methyl}-4,6-diazaspiro[2.4]hept-4-en-7-one]
inhibition at 10 µM [1]: 96% | IC50 [1]: 380 nM | IC50 (A2780 ovarian cells [2]): ~10000 nM | IC50 (A2780 ovarian cells [3]): ~676 nM | IC50 [4]: 3020 nM | IC50 [5]: 977 nM

Cc1cc(-c2ccc3cc[nH]c3c2)ccc1C1=NC2(CCCC2)C(=O)N1C[C@@H]1CCN(C(=O)C2CC2)C1 [compound 873, (R)-2-(4-(1H-indol-6-yl)-2-methylphenyl)-3-((1-(cyclopropanecarbonyl)pyrrolidin-3-yl)methyl)-1,3-diazaspiro[4.4]non-1-en-4-one]
inhibition at 10 µM [1]: 109% | IC50 (A2780 ovarian cells [2]): > 10000 nM | IC50 (A2780 ovarian cells [3]): 63.1 nM | IC50 [4]: 263 nM | IC50 [5]: 34.7 nM
